Results: patent US10774064B2 (Cadent Therapeutics, Inc., priority 2016, dated 2020)

Target: T1, small-conductance Ca2+-activated K+ channels (SK channels, subtype 2) (Homo sapiens, UniProt Q9H2S1)
T1 construct: expressed in transfected cells; host or cells: HEK293
Experiment: whole-cell patch-clamp of ionic current through SK2 channels in HEK293 cells (SC100)
Format: cell-based
Details: whole-cell patch-clamp, HEK293 cells expressing SK2 channels; concentration that increases the basal current by 100%
In short: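 Whole-cell patch-clamp recording of current in HEK293 cells expressing SK2 channels. SC100 is the compound concentration that increases basal current by 100%.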

SMILES | SC100 (μM)
Cc1csc(-c2nc(NC3CCCCC3(F)F)cc(C(C)O)n2)n1 (stereo not drawn) [IN11140-083-P1, 1-(6-((2,2-difluorocyclohexyl)amino)-2-(4-methylthiazol-2-yl)pyrimidin-4-yl) ethan-1-ol] | + (+ means >1 uM)
Cc1csc(-c2nc(N[C@@H]3CCCC[C@H]3F)cc(N3CCOCC3)n2)n1 [IN11140-086-P1] | + (+ means >1 uM)
Cc1csc(-c2nc(NC3CCCCC3(F)F)cc(C(C)F)n2)n1 (stereo not drawn) [IN11140-089-P1, N-(2,2-difluorocyclohexyl)-6-(1-fluoroethyl)-2-(4-methylthiazol-2-yl)pyrimidin-4-amine] | + (+ means >1 uM)
COc1cc(NC2CCCCC2OC)nc(-c2nc(C)cs2)n1 (stereo not drawn) [IN11140-090-P1, 6-methoxy-N-(2-methoxycyclohexyl)-2-(4-methylthiazol-2-yl)pyrimidin-4-amine] | + (+ means >1 uM)
COc1cc(N[C@@H]2CCCC[C@H]2F)nc(-c2nc(C)cs2)n1 [IN11140-096-P1] | + (+ means >1 uM)
COC(C)c1cc(NC2CCCCC2(F)F)nc(-c2nc(C)cs2)n1 (stereo not drawn) [IN11140-099-P1, N-(2,2-difluorocyclohexyl)-6-(1-methoxyethyl)-2-(4-methylthiazol-2-yl)pyrimidin-4-amine] | + (+ means >1 uM)
COc1cc(NC2CCC(F)(F)CC2)nc(-c2nc(C)cs2)c1 [IN11146-013-P1] | ++ (++ means 200 nM-1000 nM)
Cc1cc(C)n(-c2nc(N[C@@H]3CCCC[C@H]3F)cc(N3CCOCC3)n2)n1 [IN11146-016-P1] | + (+ means >1 uM)
Cc1csc(-c2nc(NC3CCC(F)(F)CC3)cc(OC3CC3)n2)n1 [IN11146-033-P1, 6-cyclopropoxy-N-(4,4-difluorocyclohexyl)-2-(4-methylthiazol-2-yl)pyrimidin-4-amine] | + (+ means >1 uM)
Cc1cc(C)n(-c2cc(CO)cc(NC3CC(F)(F)C3)n2)n1 [IN11146-039-P1, (2-((3,3-difluorocyclobutyl)amino)-6-(3,5-dimethyl-1H-pyrazol-1-yl)pyridin-4-yl) methanol] | + (+ means >1 uM)
Cc1ccn(-c2cc(OC3CCS(=O)(=O)CC3)cc(NC3CCC(F)(F)CC3)n2)n1 [IN11146-089-P1, 4-((2-((4,4-difluorocyclohexyl)amino)-6-(3-methyl-1H-pyrazol-1-yl)pyridin-4-yl)oxy)tetrahydro-2H-thiopyran 1,1-dioxide] | ++ (++ means 200 nM-1000 nM)
CSc1cc(NC2CCC(F)(F)CC2)nc(-c2nc(C)cs2)c1 [IN11147-026-P1, N-(4,4-difluorocyclohexyl)-6-(4-methylthiazol-2-yl)-4-(methylthio)pyridin-2-amine] | +++ (+++ means <200 nM)
Cc1csc(-c2cc([S+](C)[O-])cc(NC3CCC(F)(F)CC3)n2)n1 (stereo not drawn) [IN11147-031-P1, N-(4,4-difluorocyclohexyl)-4-(methylsulfinyl)-6-(4-methylthiazol-2-yl)pyridin-2-amine] | ++ (++ means 200 nM-1000 nM)
Cc1csc(-c2cc(S(C)(=O)=O)cc(NC3CCC(F)(F)CC3)n2)n1 [IN11147-036-P1, N-(4,4-difluorocyclohexyl)-4-(methylsulfonyl)-6-(4-methylthiazol-2-yl)pyridin-2-amine] | +++ (+++ means <200 nM)
COc1cc(NC2CCC(F)(F)CC2)nc(-c2nc(C3CC3)cs2)n1 [IN11147-054-P1, 2-(4-cyclopropylthiazol-2-yl)-N-(4,4-difluorocyclohexyl)-6-methoxypyrimidin-4-amine] | ++ (++ means 200 nM-1000 nM)
Cc1cc(NC2CCC(F)(F)CC2)nc(-c2nc(C3CC3)cs2)n1 [IN11147-062-P1, 2-(4-cyclopropylthiazol-2-yl)-N-(4,4-difluorocyclohexyl)-6-methylpyrimidin-4-amine] | + (+ means >1 uM)
CC(O)c1cc(NC2CCC(F)(F)CC2)nc(-c2nc(C3CC3)cs2)n1 (stereo not drawn) [IN11147-066-P1, 1-(2-(4-cyclopropylthiazol-2-yl)-6-((4,4-difluorocyclohexyl)amino)pyrimidin-4-yl) ethan-1-ol] | ++ (++ means 200 nM-1000 nM)
CC(=O)c1cc(NC2CCC(F)(F)CC2)nc(-c2nc(C3CC3)cs2)n1 [IN11147-071-P1, 1-(2-(4-cyclopropylthiazol-2-yl)-6-((4,4-difluorocyclohexyl)amino)pyrimidin-4-yl) ethan-1-one] | + (+ means >1 uM)
COCc1cc(NC2CCC(F)(F)CC2)nc(-c2nc(C3CC3)cs2)n1 [IN11147-077-P1, 2-(4-cyclopropylthiazol-2-yl)-N-(4,4-difluorocyclohexyl)-6-(methoxymethyl)pyrimidin-4-amine] | ++ (++ means 200 nM-1000 nM)
OCc1cc(NC2CCC(F)(F)CC2)nc(-c2nc(C3CC3)cs2)n1 [IN11147-082-P1, (2-(4-cyclopropylthiazol-2-yl)-6-((4,4-difluorocyclohexyl)amino)pyrimidin-4-yl) methanol] | ++ (++ means 200 nM-1000 nM)
COc1cnc(-c2nc(C3CC3)cs2)nc1NC1CCC(F)(F)CC1 [IN11147-096-P1, 2-(4-cyclopropylthiazol-2-yl)-N-(4,4-difluorocyclohexyl)-5-methoxypyrimidin-4-amine] | +++ (+++ means <200 nM)
FC1(F)CCC(Nc2cc(OCc3cnco3)nc(-n3ccc(C4CC4)n3)n2)CC1 [IN11166-020-P1] | ++ (++ means 200 nM-1000 nM)
FC1(F)CCC(Nc2cc(C3CC3)nc(-n3ccc(C4CC4)n3)n2)CC1 [IN11166-036-P1, 6-cyclopropyl-2-(3-cyclopropyl-1H-pyrazol-1-yl)-N-(4,4-difluorocyclohexyl)pyrimidin-4-amine] | ++ (++ means 200 nM-1000 nM)
CC(=O)N1CC=C(c2cc(NC3CCC(F)(F)CC3)nc(-n3ccc(C4CC4)n3)n2)CC1 [IN11166-038-P1, 1-(4-(2-(3-cyclopropyl-1H-pyrazol-1-yl)-6-((4,4-difluorocyclohexyl)amino)pyrimidin-4-yl)-3,6-dihydropyridin-1(2H)-yl)ethan-1-one] | +++ (+++ means <200 nM)
CC(=O)N1CCC(c2cc(NC3CCC(F)(F)CC3)nc(-n3ccc(C4CC4)n3)n2)CC1 [IN11166-042-P1, 1-(4-(2-(3-cyclopropyl-1H-pyrazol-1-yl)-6-((4,4-difluorocyclohexyl)amino)pyrimidin-4-yl)piperidin-1-yl)ethan-1-one] | ++ (++ means 200 nM-1000 nM)
CC(C)(C)c1ccn(-c2nc(NC3CCC(F)(F)CC3)cc(N3CCOCC3)n2)n1 [IN11177-025-P1, 2-(3-(tert-butyl)-1H-pyrazol-1-yl)-N-(4,4-difluorocyclohexyl)-6-morpholinopyrimidin-4-amine] | + (+ means >1 uM)
Cc1cc(NC2CCC(F)(F)CC2)nc(-n2ccc(C(C)(C)C)n2)n1 [IN11177-029-P1] | ++ (++ means 200 nM-1000 nM)
Cc1ccn(-c2cc(OCc3ncco3)cc(NC3CCC(F)(F)CC3)n2)n1 [IN11177-043-P1] | ++ (++ means 200 nM-1000 nM)
Cc1ccn(-c2nc(NC3CCC(F)(F)CC3)cc(N3CCN(C)C(=O)C3)n2)n1 [IN11177-049-P1] | ++ (++ means 200 nM-1000 nM)
Cc1ccn(-c2cc(OCc3cnco3)cc(NC3CCC(F)(F)CC3)n2)n1 [IN11177-056-P1] | +++ (+++ means <200 nM)
